Patent US20100003311A1, “Antimicrobial Composition” (priority 2006, published 2010)

Assays:
human keratinocytes = experiment: β-defensin production in culture medium containing human keratinocytes contacted with the compositions (FIG. 1); assay type: cell-based; details: compared with lipopolysaccharide
Excerpt: The data was obtained by measuring β-defensin production in culture medium containing human keratinocytes when contacted with the various compositions.

[1] = test system: epithelial surfaces (both mucosa and skin); experiment: release of β-defensin 2 by epithelial surfaces
Excerpt: The stimulation of β-defensin 2 by hyaluronic acid has been observed by the patent inventor. […] The application of hyaluronic acid to the skin is thought to increase the amount of innate immunity antibiotic peptides such as β-defensin 2 that are present and therefore provide an increased level of innate immunity. The stimulation of defensin and other innate immunity antibiotic peptide expression in sites of skin and mucosa injury may therefore facilitate tissue repair by providing innate immunity and decreasing the possible bacterial contamination and colonisation of tissues by opportunistic pathogens.

hyaluronic acid
stimulation of β-defensin production (human keratinocytes): stimulates β-defensin production by human keratinocytes significantly, and considerably more than lipopolysaccharide | release of β-defensin 2 [1]: able to determine the release of β-defensin 2 by epithelial surfaces
